Experimental data as given in patent publication US8501237B2, “Formulations of water insoluble or poorly water soluble drugs in lipidated glycosaminoglycan particles and their use for diagnostics and therapy” (Tel-Aviv University Future Technology Development L.P., priority 2004, dated 2013).
Where two headings read alike, the source gives them in different places.

What was measured:
[1] = system: PANC-1 cells; test: Cytotoxicity in vitro (MTT or SRB), PANC-1; assay type: cell-based; conditions: Homo sapiens
Experimental: (§1) Cytotoxicity of paclitaxel and of gagomer-encapsulated paclitaxel was evaluated over a matrix of drug-gagomer formulations (see Examples 1, 2 and 3), cell lines and treatment protocols, for the drug concentration range spanning from 1 nM to 100 μM.
(§2) Twenty four hours prior to an experiment, cells of the desired line were seeded onto 96-well multiwell culture plates at densities in the range of 5×10^3 cells/well. The experiments were initiated on sub-confluent monolayers. Two protocols were used:
(§3) (I) Short protocol. The cells were incubated with the treatment media for 4 hours, at the end of which the treatment media was aspirated, the cells washed and incubated for 44 hours in drug-free serum-supplemented cell growth media. Termination was 48 hours from start.
(§4) (II) Long protocol: the cells were incubated in the treatment media for 48 hours. Upon termination, in either protocol, cell viability was determined in each well using either the MTT or the SRB assay method.
(§5) The rationale for the two protocols, the long and the short, is as follows: The long protocol is the traditional one used for in vitro comparisons of cytotoxicity among different drug formulations. The cells are incubated with the treatment formulations for periods usually within the 24-72 hour time span, and all formulations are incubated for the same time. […]

[2] = system: B16F10.9 cells; test: Cytotoxicity in vitro (MTT or SRB), B16F10.9; assay type: cell-based, mouse
Experimental: as §1, §2, §3, §4, §5

[3] = system: SNU-251 cells; test: Cytotoxicity in vitro (MTT or SRB), SNU-251; assay type: cell-based; conditions: Homo sapiens
Experimental: as §1, §2, §3, §4, §5

[4] = system: B16F10.9 cultures; test: Cytotoxicity before and after sterilization (autoclaving) in B16F10.9 cultures; assay type: cell-based; conditions: Mus musculus
Experimental: Aqueous suspensions of TX-GAG particles were prepared according to the scheme of FIG. 7, up to and including step 5. Aqueous suspensions of paclitaxel alone (i.e., free paclitaxel) were also prepared. Samples were set aside, from both the TX-GAG and the free paclitaxel, and the remainder of each system was subjected to the following sterilization process: 12 minutes of autoclaving at 120° C. A critical question of whether this sterilization process is feasible for the TX-GAG formulations, is retention of drug activity. Therefore, the original samples set aside prior to the sterilization process, as well as the samples that underwent the process, were tested for their cytotoxicity, in B16F10.9 cultures, as described in Example 7.

[5] = system: C-26 cells; test: Cytotoxicity in vitro (MTT or SRB), C-26; assay type: cell-based; conditions: Mus musculus
Experimental: as §1, §2, §3, §4, §5

[6] = system: D122 cells; test: Cytotoxicity in vitro (MTT or SRB), D122; assay type: cell-based; conditions: Mus musculus
Experimental: as §1, §2, §3, §4, §5

[7] = 4 hours treatment, then 44 hours drug-free media, read-out: IC50 short protocol
[8] = 48 hours incubation with treatment media, read-out: IC50 long protocol

`CC(=O)O[C@H]1C(=O)[C@@]2(C)[C@H]([C@H](OC(=O)c3ccccc3)[C@]3(O)C[C@H](OC(=O)[C@H](O)[C@@H](NC(=O)c4ccccc4)c4ccccc4)C(C)=C1C3(C)C)[C@]1(OC(C)=O)CO[C@@H]1C[C@@H]2O` [Free Paclitaxel, paclitaxel] was tested, and the IC50 [1, 7] was 300 nM, the IC50 [1, 8] was 20 nM and the IC50 ([2]; Mus musculus, B16F10.9, ethanol as the lipid solvent, 4 hours treatment, then 44 hours drug-free media (Table 6), read-out: IC50 short protocol) was 1800 nM. The “cytotoxic activity after heating of ethanolic solutions” value ([2]; ethanolic paclitaxel solutions heated at 40-70° C., same cytotoxicity assay) was “did not impair the drug's cytotoxic activity”, the IC50 [3, 7] was 600 nM and the IC50 [3, 8] was 250 nM. The IC50 ([4]; after sterilization: 12 minutes of autoclaving at 120° C. (FIG. 10)) was ~300 nM, the IC50 ([4]; before sterilization (FIG. 10)) was ~300 nM and the IC50 ([5]; C26, 4 hours treatment, then 44 hours drug-free media, read-out: IC50 short protocol) was 3000 nM. For the same molecule, the IC50 ([5]; C26, 48 hours incubation with treatment media, read-out: IC50 long protocol) was 3500 nM, the IC50 [6, 7] was 900 nM and the IC50 [6, 8] was 250 nM.
